Results taken from patent US8153104B2, “Pharmaceutical formulations for dry powder inhalers comprising a low-dosage strength active ingredient” (Chiesi Farmaceutici S.p.A., priority 2005, dated 2012).
Structures can show the parent of a compound that is named as a salt.

Assay: Particle size of microparticles by laser diffraction analysis
Assay type: physicochemical
Details: starting material of Example 2
Protocol: The particle size of the obtained microparticles was determined by laser diffraction analysis. The parameters taken into consideration were: i) the VD in micron of 10%, 50%, and 90% of the particles expressed as d(v, 0.1), d(v, 0.5) and d(v, 0.9), respectively, which correspond to the mass diameter assuming a size independent density for the particles. ii) the polydispersity of the powder, i.e. the width of the particle size distribution which is expressed by the span (span=[d(v, 0.9)−d(v, 0.1)]/d (v, 0.5)—according to Chew N Y et al J Pharm Pharmaceut Sci 2002, 5, 162-168).
The agglomerates were isolated by sieving and their particle size distribution determined by laser diffraction analysis.
The microparticles were characterised in terms of particle size (laser diffraction analysis) and uniformity of distribution of the active ingredient.

MMD of micronised active ingredient: 1.8 micron
Structure (SMILES): COc1ccc(C[C@@H](C)NC[C@H](O)c2ccc(O)c3[nH]c(=O)ccc23)cc1 [CHF 4226 hydrochloride, 8-hydroxy-5-[(1R)-1-hydroxy-2-[[(1R)-2-(4-methoxyphenyl)-1-methylethyl]amino]ethyl-2(1H)-quinolinone hydrochloride]
